Experimental data as given in patent publication US8329141B2, “Locoregional internal radionuclide ablation of abnormal tissues” (Board of Regents, The University of Texas System, priority 2004, dated 2012).
“Also recorded” adds a separate entry of the source.

Tests used:
[1] = up to a 20 mg/kg systemic dose (Kalia; Mohanti et al.); cited from earlier work
[2] = system: rat mammary cancer 13762F tumor cells; assay: In vivo tumor growth after intratumoral injection of radiopharmaceuticals (rat mammary cancer model); design: species or system Fischer 344 female rats; details: for tumor growth / tumor development: 0.6 mCi intratumoral on day 10 in 0.1-0.2 ml saline (pH 4.5-6), FIG. 2
Description: The radionuclides YCl3, ^111In—Cl, and ^201Tl—Cl were obtained from a local supplier of radioisotopes, Iso-Tex Diagnostics (Friendswood, Tex.). YCl3 obtained from the supplier was in an acidic preparation with a pH of 2-3, and was subsequently diluted in saline to a final pH of about 4-6 before injection. Initial activities of ^111In—Cl and YCl3 were about 200-500 mCi/ml, and dilution were made with preservative-free saline. YIMA was prepared by co-precipitation, as set forth in U.S. Ser. No. 10/724,027. Briefly, 500 μl of FeCl3 (1 mg Fe/ml) was added to 30 μl of ^90Y chloride (20-40 μCi/30 μl), and either 30 μl of NaOH (1.0 N) or 10 μl of NH4OH (20.0%) was added to the solution to reach a pH of about 7.0 to 9.0. Co-precipitated YIMA radiopharmaceutical macroaggregates were then separated from remaining soluble radionuclides by centrifuging the reactions from 1500 RPM to 3000 RPM×5 minutes, and filtered using a Millipore Nylone (size: 0.45 μm, diameter: 13 mm) to isolate the radiopharmaceutical macroaggregates.
The rat model of in vivo tumor growth was generated as follows. On day zero, 100,000 rat mammary cancer 13762F tumor cells were implanted in a volume of 0.15 ml into the right thigh muscle of Fischer 344 female rats weighing approximately 160 grams. […] YIMA was injected in a volume of 0.2 ml on days 3-7 after tumor implantation. Tumor sizes and body weights of the rats were monitored regularly (5 times a week) for several weeks, or until the tumors grew beyond 2.5 cm, at which time the rats were euthanized.

rat breast cancer = details: systemic injection (Mortimer and Taylor; Moadel et al.); cited from earlier work
[3] = In vivo local sequestration at the injection site by serial scintigrams (intramuscular or intratumoral injection); design: species or system Fischer rats; details: for retention time with free iron / effect of free iron in the injectate on retention / local sequestration: admixture with FeCl3.6H2O; for retention time with free iron: intramuscular or intratumoral injection; for effect of free iron in the injectate on retention / local sequestration: 1 mg Fe in total injectate; for clearance after intramuscular injection: thigh muscle, after only 3 hours, negative control
Description: To further study the localization of unsealed radiopharmaceuticals after injection, in vivo imaging studies were carried out comparing ^111In DTPA (In-DTPA) (negative control) and Indium-111-Iron Macroaggregate (^111In-IMA) (positive control) to ^111In—Cl. ^111In emits gamma rays that can be detected using a gamma camera. ^111In-IMA was generated according to methods disclosed in U.S. Ser. No. 10/724,027, incorporated herein by reference. Each radiopharmaceutical was administered by intramuscular injection into the thigh muscle of Fischer rats which weighed approximately 200 grams. Two different doses of ^111In—Cl were administered to the rats, 0.4 and 0.8 mCi in 0.2 ml saline. Distribution of the ^111In—Cl was determined through serial scintigrams. […] In comparison, when ^111In-IMA was administered to rats, consistent retention (84%) of the ^111In-IMA was found 70 hours after administration (FIG. 8). Persistent intramuscular localization of ^111In—Cl was also found in rats for both dose levels of ^111In—Cl, with over 50% of the injected ^111In—Cl remaining in the injection site after three days.
To investigate whether the addition of free iron to radionuclides would increase the locoregional retention of various radionuclides, admixtures of ^67Ga-citrate, YCl3, or ^111In—Cl, were prepared with FeCl3.6H2O at 1-5 mg Fe/ml. Each radionuclide combination/admixture was administered either by intramuscular (IM) injection into the thigh muscle of the left leg (0.1-1.0 mCi) or by intratumoral (IT) injection into a tumor in the right leg (0.4-5.0 mCi) of Fischer rats. Distribution of the radionuclide was determined through serial scintigrams. Whole body images were acquired with a Siemens M-CAM camera using respective photo peaks of Ga-67, Tl-201 (for Y-90), or In-111, and 15-20% windows in photo energy. The typical imaging time was 0.5 to 5 minutes. A respective standard was present in the field of view (0.1-0.5 mCi), and used for image quantification by comparing images with the standard and normalizing the initial injection time as 100%. The Fe content in each combination/admixture was 1 mg in the total injectate.

[4] = cited from earlier work
[5] = intravenous; four days after injection (Kutzner et al.); cited from earlier work
[6] = Biodistribution and projected human radiation dosimetry after intravenous or intramuscular injection; format: in vivo, female Fisher rats; details: for human dosimetry estimate, kidney / human dosimetry estimate, red marrow: from rat biodistribution
Description: To evaluate the radiation toxicity of YCl3 after intravenous or intramuscular injection, parallel experiments were performed to evaluate the biodistribution and projected human radiation dosimetry of both ^111In—Cl and YCl3. The experiments used three female Fisher rats (140-160 grams) for each set of injections. Each rat was injected intravenously, or was injected intramuscularly in the right thigh, with 0.05 mCi of YCl3 or ^111In—Cl (with no carrier added) in 0.1 ml saline (pH 5-6). The effect of initial exposure of the radiopharmaceuticals to interstitial fluid was estimated by serum protein binding experiments using Millipore Centrifree filters as set forth in Example 2. Organs including the right and left femur, as well as the right and left thigh muscles, were harvested from each rat 7 days after injection. Human dosimetry for each radiopharmaceutical was constructed using established anthropomorphic models.

CSF proteins = assay: Binding to CSF proteins (Centrifree filter separation); format: in vitro ADME, human (patients); details: 0.2, 0.5 or 1 μCi added to diluted CSF, 20 minutes; physiologic range, all concentrations tested
Description: To test the hypothesis that local sequestration of ^111In—Cl is due to protein binding, both ^111In—Cl and YCl3 were tested for binding to CSF and serum proteins. Serum proteins were obtained from residual baseline serum and CSF proteins were obtained from patients participating in other research protocols who had consented to blood sampling. To determine the level of ^111In—Cl protein binding, 0.2, 0.5, or 1 μCi of ^111In—Cl was added to diluted CSF (0.125 or 0.5) or diluted serum protein (0.125 and 0.25) and incubated for 20 minutes. To determine the level of YCl3 protein binding, 0.2, 0.5, or 1 μCi of YCl3 was added to diluted CSF (0.063 or 0.5) or diluted serum protein (0.063 and 0.375), and incubated for 20 minutes. After incubation, free radiopharmaceuticals were separated from protein bound ^111In—Cl or YCl3 using Amicon Centrifree Micropartition filters in a single centrifugation step at 3000 g for 15 minutes according to manufacturer's instructions (Amicon, Beverly, Mass.). The percent binding of YCl3 or ^111In—Cl to the CSF or serum protein was then calculated. As shown in FIG. 6 and FIG. 7 respectively, both YCl3 and ^111In—Cl bind avidly to CSF and serum protein within the physiologic range (a dilution factor between 0.2 and 0.6) at all concentrations tested. At room temperature, both YCl3 and ^111In—Cl have greater than 95% binding to serum proteins.

serum proteins = assay: Binding to serum proteins (Centrifree filter separation); format: in vitro ADME, human (patients); details: 0.2, 0.5 or 1 μCi added to diluted serum protein, 20 minutes; physiologic range, all concentrations tested
Description: To test the hypothesis that local sequestration of ^111In—Cl is due to protein binding, both ^111In—Cl and YCl3 were tested for binding to CSF and serum proteins. Serum proteins were obtained from residual baseline serum and CSF proteins were obtained from patients participating in other research protocols who had consented to blood sampling. To determine the level of ^111In—Cl protein binding, 0.2, 0.5, or 1 μCi of ^111In—Cl was added to diluted CSF (0.125 or 0.5) or diluted serum protein (0.125 and 0.25) and incubated for 20 minutes. To determine the level of YCl3 protein binding, 0.2, 0.5, or 1 μCi of YCl3 was added to diluted CSF (0.063 or 0.5) or diluted serum protein (0.063 and 0.375), and incubated for 20 minutes. After incubation, free radiopharmaceuticals were separated from protein bound ^111In—Cl or YCl3 using Amicon Centrifree Micropartition filters in a single centrifugation step at 3000 g for 15 minutes according to manufacturer's instructions (Amicon, Beverly, Mass.). The percent binding of YCl3 or ^111In—Cl to the CSF or serum protein was then calculated. As shown in FIG. 6 and FIG. 7 respectively, both YCl3 and ^111In—Cl bind avidly to CSF and serum protein within the physiologic range (a dilution factor between 0.2 and 0.6) at all concentrations tested. At room temperature, both YCl3 and ^111In—Cl have greater than 95% binding to serum proteins. […]

human cancer cell lines = details: a number of human cancer cell lines; cited from earlier work
[7] = FIG. 4, in 0.5 ml saline, YCl3 0.5, 1.0, 2.0 mCi, ^111In—Cl 1.0, 4.0 mCi, FDG 1.0, 2.0, 3.0 mCi, ^67Ga—Fe 1.77 mCi

In the case of `O=CC[C@@H](O)[C@H](O)[C@H](O)CO` [2DG, 2-deoxy-D-glucose], the “enhancement of the effects of a radiopharmaceutical” value [1] is listed as “effective in enhancing the effects of a radiopharmaceutical”.
For `OC[C@H]1OC(O)[C@H]([18F])[C@@H](O)[C@@H]1O` (stereo partly drawn) [FDG, F-18-2-deoxy-2-fluoro-D-glucose, reference compound], the tumor growth [2, 7] is listed as “YCl3 appeared to be the only radiopharmaceutical that significantly suppressed tumor growth” and the induction of apoptosis (rat breast cancer) is listed as “sufficient to induce apoptosis”.
With `O=C([O-])CC(O)(CC(=O)[O-])C(=O)[O-].[67Ga+3]` [^67Ga citrate, Gallium 67 citrate, reference compound] the “retention time with free iron” value [3] was “Increase in the retention time” and the “retention in the injection site” value ([3]; intramuscular injection, without free iron) was “comparatively short time”.
With `[Cl][Ga]([Cl])[Cl]` [^67Ga—Cl, Gallium 67 chloride] the “retention time with free iron” value [3] was “Increase in the retention time”.
In the case of `[90Y]` [^90Y, Yttrium-90], the “radiation toxicity in red bone marrow” value ([4]; by ICRP-30) is given as 15-18 cGy/mCi, the red marrow dose ([4]; derived from distribution of Yttrium-86 citrate in human PET studies (Herzog et al.)) is given as 4-6 cGy/mCi and the “injected amount present in the bones” value [5] is given as 50%-80%.
With `[Cl][111In]([Cl])[Cl]` [^111In—Cl, Indium-111 chloride] the “tumor growth / tumor development” value [2] was “not suppressed; also recorded: not reduced; also recorded: did not suppress tumor development”, the tumor growth ([2]; FIG. 3, in 0.2-0.3 ml saline, YCl3 0.3, 0.6, 1.5 mCi, ^111In—Cl 0.6, 1.2, 2.4, 4.8 mCi, ^67Ga 0.6 mCi) was “YCl3 appeared to be the only radiopharmaceutical that significantly suppressed tumor growth” and the tumor growth [2, 7] was “YCl3 appeared to be the only radiopharmaceutical that significantly suppressed tumor growth”. The tumor growth ([2]; FIG. 5, in 1.0 ml saline, ^111In—Cl 2.2 mCi, ^188Re EDTA 1.5 mCi with or without free iron) was “strong tumor suppression”, the “change in tumor suppression with injection volume” value ([2]; injection volume increased from 0.2-0.3 ml and 0.5 ml to 1.0 ml, therapeutic dosage not increased) was “dramatic increase in tumor suppression” and the skeletal distribution ([6]; estimated from the left femur (opposite to the injection site)) was “about 16%”. For the same molecule, the “radiation uptake in the right thigh muscle” value ([6]; intramuscular injection in right thigh) was “high”, the “radiation uptake in right femur versus contralateral organ” value ([6]; intramuscular injection in right thigh, decreasing over time to) was 3 times higher and the “radiation uptake in right femur versus contralateral organ” value ([6]; intramuscular injection in right thigh, initial) was 6 times higher. For the same molecule, the “human dosimetry estimate, kidney” value ([6]; intramuscular) was 1.13 cGy/mCi, the “human dosimetry estimate, red marrow” value ([6]; intramuscular) was 0.55 cGy/mCi and the “organs with the highest uptake” value ([6]; intravenous injection, 0.05 mCi in 0.1 ml saline) was “spleen, liver, and kidney”. The “human dosimetry estimate, kidney” value ([6]; intravenous) was 10.4 cGy/mCi, the “human dosimetry estimate, red marrow” value ([6]; intravenous) was 4.01 cGy/mCi and the “binding to CSF” value (CSF proteins) was “bind avidly”. The “binding to serum protein” value (serum proteins) was “bind avidly”, the “retention time with free iron” value [3] was “Increase in the retention time” and the “effect of free iron in the injectate on retention / local sequestration” value ([3]; intramuscular injection) was “does not appear to dramatically affect”. The “injected radiopharmaceutical remaining in the injection site” value ([3]; intramuscular, 0.4 and 0.8 mCi in 0.2 ml saline (both dose levels), after three days) was “over 50%”, the “effect of pH of the injectate on local sequestration” value ([3]; intramuscular, acidic solution (pH 3.0) vs basic solution (pH 8.0), FIG. 9) was “does not appear to dramatically affect” and the “effect of free iron in the injectate on retention / local sequestration” value ([3]; intratumoral injection) was “does appear to increase”.
In the case of `[O]=[188Re](=[O])(=[O])[O-]` [^188Re perrhenate, reference compound], the “clearance from the injection site” value ([3]; intratumoral injection, without free iron, FIG. 16) is reported as “rapidly cleared” and the “effect of free iron in the injectate on retention / local sequestration” value ([3]; intratumoral injection) is reported as “did not slow down the clearance”.
With `[Cl][201Tl]` [^201Tl—Cl, Thallium-201 chloride, reference compound] the “tumor growth / tumor development” value [2] was “not reduced” and the “effect of free iron in the injectate on retention / local sequestration” value ([3]; intratumoral injection) was “did not dramatically slow down clearance”.
In the case of Rhodamine-123 [Rh-123], the “toxicity to cancer cell lines” value (human cancer cell lines) is listed as “selectively toxic”.
In the case of “^111In DTPA [^111In-DTPA, reference compound]”, the “clearance after intramuscular injection” value ([3]; intramuscular) is reported as “rapidly cleared” and the “clearance after intramuscular injection” value ([3]; intramuscular, listed as In-DTPA) is reported as “rapid clearance”.
